pIC50: −log10 of the molar value.
How the values were obtained:
[1] = tested on: Differentiated U937 cells; experiment: (l) Cell viability: MTT assay; assay type: cell-based, human; details: 1 μg/mL
How it was run: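 MTT read-out (1 h, absorbance 550 nm) on d-U937 cells after pre-incubation with 1 or 10 μg/mL compound under two regimes: 4 h, 5% FCS, or 24 h, 10% FCS RPMI1640. Values are percent loss of viability relative to vehicle (0.5% DMSO), so increases are reported as negative.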

[2] = target: p38 MAPKα isoform (MAPK14) (Homo sapiens (Human), UniProt Q16539); experiment: p38 MAPKα enzyme inhibition (FRET, Z-LYTE), Method 1; assay type: biochemical; details: Method 1 (Table 4a1)
p38 MAPKα isoform (MAPK14), sequence (Q16539 whole entry, canonical isoform): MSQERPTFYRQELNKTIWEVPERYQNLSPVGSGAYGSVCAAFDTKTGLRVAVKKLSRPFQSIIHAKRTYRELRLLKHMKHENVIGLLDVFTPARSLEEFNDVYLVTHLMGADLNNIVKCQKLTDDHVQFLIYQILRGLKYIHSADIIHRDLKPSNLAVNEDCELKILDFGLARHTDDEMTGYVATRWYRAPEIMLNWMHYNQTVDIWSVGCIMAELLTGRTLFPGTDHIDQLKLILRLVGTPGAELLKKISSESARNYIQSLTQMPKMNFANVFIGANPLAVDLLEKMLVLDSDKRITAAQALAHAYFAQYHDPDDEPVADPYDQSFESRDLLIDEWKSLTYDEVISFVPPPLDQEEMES

SMILES	Cell viability at time point in d-U937 cells 4 h [1]	Cell viability at time point in d-U937 cells 24 h [1]	pIC50 [2]
Cc1ccc(-n2nc(C(C)C)cc2NC(=O)Nc2ccc(Oc3ccnc(Nc4cc(Cl)cc(C(=O)NCCN5CCOCC5)c4)n3)c3ccccc23)cc1 [Example 60, 3-chloro-5-((4-((4-(3-(3-isopropyl-1-(p-tolyl)-1H-pyrazol-5-yl)ureido)naphthalen-1-yl)oxy)pyrimidin-2-yl)amino)-N-(2-morpholinoethyl)benzamide]	−ve (−ve and +ve indicate that the value is below and above respectively, the no significant effect threshold, defined as 30% inhibition at 1 μg/mL at the time point indicated.)	−ve (−ve and +ve indicate that the value is below and above respectively, the no significant effect threshold, defined as 30% inhibition at 1 μg/mL at the time point indicated.)	7.80
COc1cc(Nc2nccc(Oc3ccc(NC(=O)Nc4cc(C(F)(F)F)nn4-c4ccc(C)cc4)c4ccccc34)n2)cc(C(=O)NCCN2CCOCC2)c1 [Example 48, 3-methoxy-N-(2-morpholinoethyl)-5-((4-((4-(3-(1-(p-tolyl)-3-(trifluoromethyl)-1H-pyrazol-5-yl)ureido)naphthalen-1-yl)oxy)pyrimidin-2-yl)amino)benzamide]	−ve (−ve and +ve indicate that the value is below and above respectively, the no significant effect threshold, defined as 30% inhibition at 1 μg/mL at the time point indicated.)	−ve (−ve and +ve indicate that the value is below and above respectively, the no significant effect threshold, defined as 30% inhibition at 1 μg/mL at the time point indicated.)	7.74
COc1cc(Nc2cc(Oc3ccc(NC(=O)Nc4cc(C(C)C)nn4-c4ccc(C)cc4)c4ccccc34)ncn2)cc(C(=O)NCCN2CCOCC2)c1 [Example 71, 3-((6-((4-(3-(3-isopropyl-1-(p-tolyl)-1H-pyrazol-5-yl)ureido)naphthalen-1-yl)oxy)pyrimidin-4-yl)amino)-5-methoxy-N-(2-morpholinoethyl)benzamide]	−ve (−ve and +ve indicate that the value is below and above respectively, the no significant effect threshold, defined as 30% inhibition at 1 μg/mL at the time point indicated.)	−ve (−ve and +ve indicate that the value is below and above respectively, the no significant effect threshold, defined as 30% inhibition at 1 μg/mL at the time point indicated.)	8.70
CCCNC(=O)c1cccc(Nc2nccc(Oc3ccc(NC(=O)Nc4cc(C(C)(C)C)nn4-c4ccc(OC)cc4)c4ccccc34)n2)c1 [Example 17, 3-(4-(4-(3-(3-tert-butyl-1-(4-methoxyphenyl)-1H-pyrazol-5-yl)ureido)naphthalen-1-yloxy)pyrimidin-2-ylamino)-N-propylbenzamide]	−ve (−ve and +ve indicate that the value is below and above respectively, the no significant effect threshold, defined as 30% inhibition at 1 μg/mL at the time point indicated.)	−ve (−ve and +ve indicate that the value is below and above respectively, the no significant effect threshold, defined as 30% inhibition at 1 μg/mL at the time point indicated.)	7.27
COc1cc(Nc2nccc(Oc3ccc(NC(=O)Nc4cc(C(C)C)nn4-c4ccc(C)cc4)c4ccccc34)n2)cc(C(=O)N2CCOCC2)c1 [Example 12, 1-(3-Isopropyl-1-(p-tolyl)-1H-pyrazol-5-yl)-3-(4-((2-((3-methoxy-5-(morpholine-4-carbonyl)phenyl)amino)pyrimidin-4-yl)oxy)naphthalen-1-yl)urea]	−ve (−ve and +ve indicate that the value is below and above respectively, the no significant effect threshold, defined as 30% inhibition at 1 μg/mL at the time point indicated.)	−ve (−ve and +ve indicate that the value is below and above respectively, the no significant effect threshold, defined as 30% inhibition at 1 μg/mL at the time point indicated.)	8.22
COCCOc1cccc(-n2nc(C(C)(C)C)cc2NC(=O)Nc2ccc(Oc3ccnc(Nc4cc(OC)cc(C(=O)NCCN5CCOCC5)c4)n3)c3ccccc23)c1 [Example 55, 3-((4-((4-(3-(3-(tert-butyl)-1-(3-(2-methoxyethoxy)phenyl)-1H-pyrazol-5-yl)ureido)naphthalen-1-yl)oxy)pyrimidin-2-yl)amino)-5-methoxy-N-(2-morpholinoethyl)benzamide]	−ve (−ve and +ve indicate that the value is below and above respectively, the no significant effect threshold, defined as 30% inhibition at 1 μg/mL at the time point indicated.)	−ve (−ve and +ve indicate that the value is below and above respectively, the no significant effect threshold, defined as 30% inhibition at 1 μg/mL at the time point indicated.)	8.05
CNC(=O)c1cccc(Nc2nccc(Oc3ccc(NC(=O)Nc4cc(C(C)(C)C)nn4-c4ccc(C)cc4)c4ccccc34)n2)c1 [Example 16, 3-((4-((4-(3-(3-(tert-butyl)-1-(p-tolyl)-1H-pyrazol-5-yl)ureido)naphthalen-1-yl)oxy)pyrimidin-2-yl)amino)-N-methylbenzamide]	−ve (−ve and +ve indicate that the value is below and above respectively, the no significant effect threshold, defined as 30% inhibition at 1 μg/mL at the time point indicated.)	−ve (−ve and +ve indicate that the value is below and above respectively, the no significant effect threshold, defined as 30% inhibition at 1 μg/mL at the time point indicated.)	7.47
Cc1ccc(-n2nc(C(C)(C)C)cc2NC(=O)Nc2ccc(Oc3ccnc(Nc4cccc(C(=O)NCCN5CCOCC5)c4)n3)c3ccccc23)cc1 [Example 3, 3-((4-((4-(3-(3-(tert-Butyl)-1-(p-tolyl)-1H-pyrazol-5-yl)ureido)naphthalen-1-yl)oxy)pyrimidin-2-yl)amino)-N-(2-morpholinoethyl)benzamide]	−ve (−ve and +ve indicate that the value is below and above respectively, the no significant effect threshold, defined as 30% inhibition at 1 μg/mL at the time point indicated.)	−ve (−ve and +ve indicate that the value is below and above respectively, the no significant effect threshold, defined as 30% inhibition at 1 μg/mL at the time point indicated.)	8.15
COc1ccc(-n2nc(C(C)C)cc2NC(=O)Nc2ccc(Oc3ccnc(Nc4ccc(C(=O)NCCN5CCOCC5)cc4OC)n3)c3ccccc23)cc1 [Example 38]	−ve (−ve and +ve indicate that the value is below and above respectively, the no significant effect threshold, defined as 30% inhibition at 1 μg/mL at the time point indicated.)	−ve (−ve and +ve indicate that the value is below and above respectively, the no significant effect threshold, defined as 30% inhibition at 1 μg/mL at the time point indicated.)	7.92
COc1ccc(-n2nc(C(C)C)cc2NC(=O)Nc2ccc(Oc3cc(Nc4cc(OC)cc(C(=O)NCCN5CCOCC5)c4)ncn3)c3ccccc23)cc1 [Example 14, 3-((6-((4-(3-(3-isopropyl-1-(4-methoxyphenyl)-1H-pyrazol-5-yl)ureido)naphthalen-1-yl)oxy)pyrimidin-4-yl)amino)-5-methoxy-N-(2-morpholinoethyl)benzamide]	−ve (−ve and +ve indicate that the value is below and above respectively, the no significant effect threshold, defined as 30% inhibition at 1 μg/mL at the time point indicated.)	+ve (−ve and +ve indicate that the value is below and above respectively, the no significant effect threshold, defined as 30% inhibition at 1 μg/mL at the time point indicated.)	> 9.00
COc1ccc(-n2nc(C(C)(C)C)cc2NC(=O)Nc2ccc(Oc3ccnc(Nc4cc(Br)cc(C(N)=O)c4)n3)c3ccccc23)cc1 [Example 42, 3-bromo-5-((4-((4-(3-(3-(tert-butyl)-1-(4-methoxyphenyl)-1H-pyrazol-5-yl)ureido)naphthalen-1-yl)oxy)pyrimidin-2-yl)amino)benzamide]	−ve (−ve and +ve indicate that the value is below and above respectively, the no significant effect threshold, defined as 30% inhibition at 1 μg/mL at the time point indicated.)	−ve (−ve and +ve indicate that the value is below and above respectively, the no significant effect threshold, defined as 30% inhibition at 1 μg/mL at the time point indicated.)	6.78

— patent US9701670B2, “Pyrazolyl-ureas as kinase inhibitors” (RESPIVERT LIMITED, priority 2013, dated 2017)
